# Measurements as given in article PMC6811436, “Epithelial Lining Fluid and Plasma Concentrations of Dalbavancin in Healthy Adults after a Single 1,500-Milligram Infusion” (Antimicrobial Agents and Chemotherapy, 2019).
# Read-outs that look alike come from different tables or passages of the source.
# Tests used:
# S. pneumoniae [1] = settings: in vivo, iv
# S. pneumoniae [2] = settings: single dose; immunocompetent and neutropenic rats; penicillin-susceptible and penicillin-resistant S. pneumoniae; cited from earlier work
# Description: (§1) Dalbavancin has been used off label for treatment of MRSA pneumonia in a patient treated with vancomycin who ...
# [3] = test system: penicillin-resistant S. pneumoniae; settings: single dose, rats with lobar pneumonia; cited from earlier work
# Description: as §1
# MRSA = settings: one patient switched from vancomycin to dalbavancin 1,500 mg; cited from earlier work
# Description: as §1
# [4] = cited from earlier work
# Description: This study evaluated the PK of dalbavancin in ELF and plasma up to 7 days after a single 1,500-mg i.v. infusion in healthy Japanese subjects. Dalbavancin was detectable in bronchial ELF at the earliest time point (4 h postdose) and sustained for ≥7 days, exceeding the MIC90s of S. pneumoniae and S. aureus. While drug exposure at the site of infection is essential for antibacterial activity, the PK/PD parameter associated with efficacy for dalbavancin is AUC/MIC ([3]).
# [5] = Epithelial lining fluid (ELF) concentrations by bronchial microsampling after a single 1,500-mg infusion; settings: for Dalbavancin concn, ELF (median) / Dalbavancin concn, ELF (mean [SD]): 1,500 mg i.v., LC-MS/MS
# Description: (§2) A phase 1 open-label, single-dose, safety, tolerability, and PK study of ELF and plasma concentrations of dalbavancin was conducted between May and June 2015 at the SOUSEIKAI Hakata Clinic in Fukuoka, Japan. The study was approved by the local institutional review board at the site. Thirty-seven healthy, nonsmoking Japanese adult subjects received a 1,500-mg dose of dalbavancin infused for 30 ± 2 min. Thirty-five subjects (5 enrolled in each of 7 cohorts) had bronchoscopy with bronchial microsampling of ELF using a microsampling probe (BC-401C; Olympus, Tokyo, Japan), as described previously ([9]), at one of seven time points from the start of dalbavancin infusion (4, 8, 12, 24, 72, 120, and 168 h). Topical lidocaine viscous was used for gargling; 4% lidocaine liquid by aerosol spray was then used for topical anesthesia in the larynx, followed by bronchoscopy, with additional 1% or 2% lidocaine applied to the vocal cords and lower airway as needed. Sedation was allowed per local standard of care. In the BMS procedure, microsampling catheter sponge probes were inserted carefully through a fiberoptic bronchoscope into the peripheral airways of the right lower lobe, with the inner probe gently in contact with the bronchial lumen for 15 s. Three unique probe samples were obtained from each subject for a specific time point. The tips of the probe samples were cut at 3 cm from the tip of each probe, and each time point sample consisted of three probes placed in a vial for analysis. Ten blood PK samples were collected into K2EDTA vacutainers from all 37 subjects up to 168 h postdose (0.5, 1, 2, 4, 8, 12, 24, 72, 120, and 168 h), and plasma was harvested for sample bioanalysis.
# (§3) The dalbavancin ELF and plasma concentrations were measured using a validated liquid chromatography-tandem mass spectrometry (LC-MS/MS) method in each matrix ([14]). The bioanalytical methods were validated at Tandem Labs (West Trenton, NJ) under sponsor oversight. (Covance is the brand of Covance, Inc., and used by Tandem Labs, Inc., and NWT, Inc., wholly owned subsidiaries of Laboratory Corporation of America Holdings.) Because ELF can only be collected via invasive techniques, validation of the method in ELF was conducted in a surrogate matrix of human serum ultrafiltrate (HUF).
# (§4) The plasma LC-MS/MS method was validated on an API 4000 (Sciex, Framingham, MA) using plasma protein precipitation for sample cleanup before injection for detection of the analytes of interest. Detection was carried out using positive-mode electrospray with selected reaction monitoring for the mass spectrometer operation mode. In plasma, the calibration range was validated from 0.500 to 500 μg/ml using 50 μl plasma for each analysis, with a lower limit of quantification (LLOQ) of 0.500 μg/ml. The ELF LC-MS/MS method was validated on an API 5000 (Sciex) using dilution for sample preparation before analysis. For ELF, the calibration range was validated from 0.010 to 2.00 μg/ml using 75 μl sample volume (study sample[s] consisted of ELF; and standards, blanks, and quality controls consisted of HUF in extraction solvent of 40:60 acetonitrile:water), with an LLOQ of 0.010 μg/ml. Detection was carried out using positive-mode electrospray with selected reaction monitoring for the mass spectrometer operation mode. A structural analog of dalbavancin, diethylamide of dalbavancin, was used as an internal standard in both methods in support of quantitation of dalbavancin.
# (§5) Statistical analyses of safety parameters were performed using version 9.3 of SAS (SAS Institute, Inc., Cary, NC) on a LINUX operating system. Noncompartmental PK parameters based on plasma and ELF dalbavancin concentrations were determined for individual subjects, and descriptive statistics were performed using the software program Phoenix WinNonlin (version 6.2; Pharsight Corporation, Cary, NC). Plasma concentrations below the LLOQ were treated as 0 for all PK calculations.
# [6] = cited from earlier work; remark: listed apart in the source
# S. aureus [7] = settings: in vivo, iv
# [8] = Plasma pharmacokinetics after a single 1,500-mg i.v. dalbavancin infusion, phase 1 study; settings: for Dalbavancin concn, calculated unbound plasma (median): 1,500 mg i.v.
# Description: as §2, §3, §4, §5
# S. pneumoniae [9] = test system: S. pneumoniae; parameters: method as in earlier work; settings: cited from earlier work
# Description: (§6) Dalbavancin is 93% protein bound in plasma ([1]), and the pharmacokinetic/pharmacodynamic (PK/PD) parameter best associated with efficacy is area under the concentratio ...
# S. aureus [10] = test system: S. aureus; parameters: method as in earlier work; settings: cited from earlier work
# Description: as §6
# [11] = cited from earlier work; remark: listed apart in the source
# Description: as §6
# [12] = previously established, cited from earlier work
# Description: The bioanalysis was conducted to meet current regulated bioanalysis requirements. The sensitivity, accuracy, precision, recovery, carryover, and matrix effect were established, and study samples were analyzed within established appropriate stabilities to cover sample collection, storage, and analysis. Dalbavancin plasma sample stability has previously been established for 368 days at −20 °C and for 56 days at −70°C. Stability of dalbavancin in HUF was established for 46 days at −70 °C. Plasma (370 samples) and ELF (35 samples; samples for each ELF time point collected on 3 BMS probes and analy ...
# [13] = Safety and tolerability in the phase 1 study; assay type: in vivo, human; settings: 37 subjects; 1,500 mg i.v. single dose
# Description: Key inclusion criteria were age between 20 and 55 years and body mass index (BMI) between 18 and 30 kg/m^2. […] Subjects were assigned to cohorts on a first-come, first-served basis. Safety data were collected at each visit (screening [days −28 to −3], baseline [days −3 to −1], and days 1, 2, 4, 6, and 8 to 9) and included adverse events, physical examination, chemistry and hematology assessments (screening/baseline, day 8 to 9), and chest X ray (at screening, to exclude subjects with lung disease, and on the day after BMS sampling).
# [14] = 8 healthy subjects, 1,500 mg dalbavancin, ref Allergan, data on file
# [15] = 1,500 mg i.v. single dose, bronchial microsampling
# [16] = 8 h, bronchial microsampling, 5 subjects
# [17] = 12 h, bronchial microsampling, 5 subjects
# [18] = 24 h, bronchial microsampling, 5 subjects
# [19] = 72 h, bronchial microsampling, 5 subjects
# [20] = 120 h, bronchial microsampling, 5 subjects
structure (smiles),measurement,setting,value
CN[C@H]1C(=O)N[C@@H]2Cc3ccc(cc3)Oc3cc4cc(c3O[C@@H]3O[C@H](C(=O)O)[C@@H](O)[C@H](O)[C@H]3NC(=O)CCCCCCCCC(C)C)Oc3ccc(cc3Cl)[C@@H](O)[C@@H]3NC(=O)[C@H](NC(=O)[C@@H]4NC(=O)[C@@H](NC2=O)c2cc(cc(O)c2Cl)Oc2cc1ccc2O)c1ccc(O)c(c1)-c1c(O[C@H]2O[C@H](CO)[C@@H](O)[C@H](O)[C@@H]2O)cc(O)cc1[C@@H](C(=O)NCCCN(C)C)NC3=O [Dalbavancin],time ELF levels exceeded the MIC90 of S. pneumoniae,S. pneumoniae [1],≥ 7 days
same,bacterial counts in the lungs,S. pneumoniae [2],reduction of bacterial counts observed in the lungs
same,lung bacterial load,[3],significant reduction in the lung bacterial load
same,MRSA in sputum cultures,MRSA,subsequent clearance of MRSA in sputum cultures
same,"plasma AUC0–24, mean (SD)",[4]; [14],"5,202.55 (620.05) μg · h/ml"
same,"plasma Cmax, mean (SD)",[4]; [14],467.63 (55.73) μg/ml
same,mean Tmax,"[4]; 8 healthy subjects, 1,500 mg, range 0.5 to 0.5, ref Allergan, data on file",30 min
same,median Tmax,"[4]; 49 subjects, 1,500 mg dalbavancin",37.2 min
same,ELF AUC0–168 (median),[5]; [15],527 µg·h/mL
same,ELF Cmax (median),[5]; [15],4 µg/mL
same,ELF Tmax (median),[5]; [15],72 h
same,"Dalbavancin concn, ELF (median)","[5]; 4 h, bronchial microsampling, 5 subjects per time point",1.9 µg/mL
same,"Dalbavancin concn, ELF (mean [SD])","[5]; 4 h, bronchial microsampling, 5 subjects",1.9 (1.0) μg/ml
same,"Dalbavancin concn, ELF (mean [SD])",[5]; [16],3.1 (1.9) μg/ml
same,"Dalbavancin concn, ELF (median)",[5]; [16],2.2 µg/mL
same,"Dalbavancin concn, ELF (mean [SD])",[5]; [17],3.6 (2.1) μg/ml
same,"Dalbavancin concn, ELF (median)",[5]; [17],2.8 µg/mL
same,"Dalbavancin concn, ELF (mean [SD])",[5]; [18],2.7 (0.5) μg/ml
same,"Dalbavancin concn, ELF (median)",[5]; [18],2.6 µg/mL
same,"Dalbavancin concn, ELF (mean [SD])",[5]; [19],7.3 (8.2) μg/ml
same,"Dalbavancin concn, ELF (median)",[5]; [19],4.2 µg/mL
same,"Dalbavancin concn, ELF (mean [SD])",[5]; [20],11.9 (20.1) μg/ml
same,"Dalbavancin concn, ELF (median)",[5]; [20],3.3 µg/mL
same,"Dalbavancin concn, ELF (median)","[5]; 168 h (7 days), bronchial microsampling, 5 subjects",2.1 µg/mL
same,"Dalbavancin concn, ELF (mean [SD])","[5]; 168 h, bronchial microsampling, 5 subjects",2.0 (0.6) μg/ml
same,penetration of dalbavancin into ELF,[5]; ratio of AUC in ELF to unbound AUC in plasma (7% of AUC0–168),36%
same,solubility in saline,[6],not soluble in saline
same,time ELF levels exceeded the MIC90 of S. aureus,S. aureus [7],≥ 7 days
same,"plasma AUC0–168, mean (SD)","[8]; 1,500 mg i.v. single dose, noncompartmental","21,087 (2,282) μg · h/ml"
same,"Dalbavancin concn, calculated unbound plasma (median)","[8]; 4 h, calculated with 93% protein binding (unbound fraction 7%)",20 µg/mL
same,"Dalbavancin concn, calculated unbound plasma (median)","[8]; 8 h, calculated with unbound fraction 7%",16 µg/mL
same,"Dalbavancin concn, calculated unbound plasma (median)","[8]; 12 h, calculated with unbound fraction 7%",14 µg/mL
same,"Dalbavancin concn, calculated unbound plasma (median)","[8]; 24 h, calculated with unbound fraction 7%",12 µg/mL
same,"Dalbavancin concn, calculated unbound plasma (median)","[8]; 72 h, calculated with unbound fraction 7%",8 µg/mL
same,"Dalbavancin concn, calculated unbound plasma (median)","[8]; 120 h, calculated with unbound fraction 7%",7 µg/mL
same,"Dalbavancin concn, calculated unbound plasma (median)","[8]; 168 h, calculated with unbound fraction 7%",6 µg/mL
same,Tmax,"[8]; human, in vivo, iv",30 min
same,clearance,"[8]; human, in vivo, iv",0.683 mL/min
same,level at 0.5 h,"[8]; human, in vivo, iv, 1500 mg",442 µg/mL
same,level at 1 h,"[8]; human, in vivo, iv, 1500 mg",397 µg/mL
same,level at 2 h,"[8]; human, in vivo, iv, 1500 mg",331 µg/mL
same,level at 8 h,"[8]; human, in vivo, iv, 1500 mg",222 µg/mL
same,level at 12 h,"[8]; human, in vivo, iv, 1500 mg",194 µg/mL
same,level at 24 h,"[8]; human, in vivo, iv, 1500 mg",169 µg/mL
same,level at 72 h,"[8]; human, in vivo, iv, 1500 mg",120 µg/mL
same,level at 120 h,"[8]; human, in vivo, iv, 1500 mg",94 µg/mL
same,effect of surfactant on in vitro activity,S. pneumoniae [9],does not appear to be appreciably affected by the presence of surfactant
same,effect of surfactant on in vitro activity,S. aureus [10],does not appear to be appreciably affected by the presence of surfactant
same,protein bound in plasma,[11],93%
same,terminal half-life,[11],14.4 days
same,"time plasma concentrations maintained above the MIC90 for most Gram-positive pathogens, including S. aureus","[11]; single dose of 1,500 mg i.v.",at least 2 weeks
same,plasma sample stability established for,[12]; −20 °C,368 days
same,plasma sample stability established for,[12]; −70°C,56 days
same,clinical laboratory parameters,[13],no observed safety concerns in clinical laboratory parameters
same,serious AEs,[13],no serious AEs
same,severity of treatment-emergent AEs,[13],all were mild
same,subjects with at least one treatment-emergent adverse event (AE),[13],Five
same,treatment-emergent AEs leading to withdrawal from study-drug therapy,[13],no treatment-emergent AEs leading to withdrawal from study-drug therapy
